Where “and” joins values, the source holds several entries; their conditions need not be identical. Identical values can stand only once. Toxic doses and inconclusive results are not listed. Cut-off read from the data, not from the text of the source: active = T/C of 150% or more; inactive = T/C below 125%.
Tested on: L1210 leukemia ip in BDF1 mice, survival T/C
Assay: NCI In Vivo Anticancer Drug Screen. Data for tumor model L1210 Leukemia (intraperitoneal) in B6D2F1 (BDF1) mice
Conditions: endpoint: mean survival time, higher = longer survival
In short: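 Tumor cells were implanted, animals were treated, and survival was followed. The result divides the treated measurement by the vehicle-control measurement.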

[1] = dose: 100.0 mg/kg/injection, schedule: Q04DX003 (ip), vehicle: saline
[2] = dose: 200.0 mg/kg/injection, schedule: Q04DX003 (ip), vehicle: saline
[3] = dose: 400.0 mg/kg/injection, schedule: Q04DX003 (ip), vehicle: saline
[4] = dose: 100.0 mg/kg/injection, schedule: Q01DX009 (ip), vehicle: saline with Tween-80
[5] = dose: 200.0 mg/kg/injection, schedule: Q01DX009 (ip), vehicle: saline with Tween-80

Measured: T/C

Cc1cc(C)c2ccc([S+](C)C)c-2c(C)c1
inactive: dose: 5.0 mg/kg/injection, schedule: Q01DX001 (ip), vehicle: carboxymethylcellulose (CMC) 105 % of control | dose: 10.0 mg/kg/injection, schedule: Q01DX001 (ip), vehicle: carboxymethylcellulose (CMC) 100 % of control | dose: 20.0 mg/kg/injection, schedule: Q01DX001 (ip), vehicle: carboxymethylcellulose (CMC) 105 % of control | dose: 40.0 mg/kg/injection, schedule: Q01DX001 (ip), vehicle: carboxymethylcellulose (CMC) 108 % of control | dose: 80.0 mg/kg/injection, schedule: Q01DX001 (ip), vehicle: carboxymethylcellulose (CMC) 97 % of control

Cc1c(C#N)c2ccccc2c2ccccc12
inactive: [1] 103 % of control | [2] 103 % of control | [3] 95 % of control

O=S(=O)(OC1CCCC1Cl)c1ccc(Br)cc1 (stereo not given)
inactive: dose: 50.0 mg/kg/injection, schedule: Q01DX009 (ip), vehicle: saline with Tween-80 93 % of control | [4] 93 % of control | [5] 86 % of control

CSc1ncc(C=O)c(N)n1
inactive: [4] 100 % of control | [5] 96 % of control

CCCCCCCCOC(=O)c1[nH]cnc1/N=N\N(C)C
inactive: dose: 45.0 mg/kg/injection, schedule: Q01DX015 (ip), vehicle: other 103 % of control | dose: 88.0 mg/kg/injection, schedule: Q01DX001 (ip), vehicle: other 96 % of control | dose: 100.0 mg/kg/injection, schedule: Q01DX001 (ip), vehicle: other 102 % of control | dose: 133.0 mg/kg/injection, schedule: Q01DX001 (ip), vehicle: other 88 % of control | dose: 133.0 mg/kg/injection, schedule: Q01DX009 (ip), vehicle: other 101 % of control | dose: 180.0 mg/kg/injection, schedule: Q01DX015 (ip), vehicle: other 122 % of control | dose: 200.0 mg/kg/injection, schedule: Q01DX001 (ip), vehicle: other 109 % of control and 90 % of control | dose: 200.0 mg/kg/injection, schedule: Q01DX009 (ip), vehicle: other 95 % of control | dose: 300.0 mg/kg/injection, schedule: Q01DX001 (ip), vehicle: other 100 % of control | dose: 300.0 mg/kg/injection, schedule: Q01DX009 (ip), vehicle: other 100 % of control | dose: 400.0 mg/kg/injection, schedule: Q01DX001 (ip), vehicle: other 104 % of control | dose: 450.0 mg/kg/injection, schedule: Q01DX009 (ip), vehicle: other 97 % of control

Cc1ccc(S(=O)(=O)NC(CCC(=O)O)C(=O)O)cc1 (stereo not given)
inactive: dose: 100.0 mg/kg/injection, schedule: Q01DX001 (ip), vehicle: saline 91 % of control | dose: 100.0 mg/kg/injection, schedule: Q01DX009 (ip), vehicle: saline 93 % of control | [1] 108 % of control | dose: 200.0 mg/kg/injection, schedule: Q01DX001 (ip), vehicle: saline 102 % of control | dose: 200.0 mg/kg/injection, schedule: Q01DX009 (ip), vehicle: saline 100 % of control | [2] 103 % of control | dose: 400.0 mg/kg/injection, schedule: Q01DX009 (ip), vehicle: saline 88 % of control | [3] 106 % of control

COc1cc(Cl)ccc1NC(=O)Oc1ccc(-c2ccccc2)cc1
inactive: dose: 100.0 mg/kg/injection, schedule: Q01DX009 (ip), vehicle: Klucel (hydroxypropylcellulose) (HPC) 116 % of control | dose: 200.0 mg/kg/injection, schedule: Q01DX009 (ip), vehicle: Klucel (hydroxypropylcellulose) (HPC) 94 % of control | dose: 400.0 mg/kg/injection, schedule: Q01DX009 (ip), vehicle: Klucel (hydroxypropylcellulose) (HPC) 92 % of control

CCOC(C)C(/C=N/NC(N)=S)=NNC(N)=S (stereo not given)
inactive: dose: 15.0 mg/kg/injection, schedule: Q01DX010 (ip), vehicle: saline 95 % of control | dose: 15.0 mg/kg/injection, schedule: Q01DX Z (ip), vehicle: carboxymethylcellulose (CMC) 101 % of control | dose: 30.0 mg/kg/injection, schedule: Q01DX010 (ip), vehicle: saline 89 % of control | dose: 30.0 mg/kg/injection, schedule: Q01DX Z (ip), vehicle: carboxymethylcellulose (CMC) 95 % of control | dose: 60.0 mg/kg/injection, schedule: Q01DX010 (ip), vehicle: saline 92 % of control | dose: 60.0 mg/kg/injection, schedule: Q01DX Z (ip), vehicle: carboxymethylcellulose (CMC) 100 % of control and 102 % of control | dose: 60.0 mg/kg/injection, schedule: Q01DX Z (oral), vehicle: carboxymethylcellulose (CMC) 100 % of control | dose: 120.0 mg/kg/injection, schedule: Q01DX Z (ip), vehicle: carboxymethylcellulose (CMC) 93 % of control and 103 % of control | dose: 120.0 mg/kg/injection, schedule: Q01DX Z (oral), vehicle: carboxymethylcellulose (CMC) 106 % of control | dose: 240.0 mg/kg/injection, schedule: Q01DX Z (oral), vehicle: carboxymethylcellulose (CMC) 93 % of control

O=C1N(c2cccnc2)C(c2ccccc2)C1(c1ccccc1)c1ccccc1 (stereo not given)
inactive: dose: 100.0 mg/kg/injection, schedule: Q04DX003 (ip), vehicle: gum acacia 91 % of control | dose: 200.0 mg/kg/injection, schedule: Q04DX003 (ip), vehicle: gum acacia 87 % of control | dose: 400.0 mg/kg/injection, schedule: Q04DX003 (ip), vehicle: gum acacia 91 % of control

O=C1c2ccccc2C(=O)C1c1ccc2ccccc2n1
inactive: dose: 100.0 mg/kg/injection, schedule: Q04DX003 (ip), vehicle: saline with Tween-80 95 % of control | dose: 200.0 mg/kg/injection, schedule: Q04DX003 (ip), vehicle: saline with Tween-80 91 % of control | dose: 400.0 mg/kg/injection, schedule: Q04DX003 (ip), vehicle: saline with Tween-80 93 % of control

CCOC(=O)/C(O)=C\c1ccc(OC)n[n+]1[O-]
inactive: dose: 35.0 mg/kg/injection, schedule: Q04DX002 (ip), vehicle: Klucel (hydroxypropylcellulose) (HPC) 104 % of control | dose: 70.0 mg/kg/injection, schedule: Q04DX002 (ip), vehicle: Klucel (hydroxypropylcellulose) (HPC) 104 % of control | dose: 140.0 mg/kg/injection, schedule: Q04DX002 (ip), vehicle: Klucel (hydroxypropylcellulose) (HPC) 104 % of control

— PubChem BioAssay AID248 (DTP/NCI, 2004)
